Where a SMILES comes first, the peptide text is derived from it. Bridges are numbered along the chain shown (N, C = ends). [ ]: non-standard residue; d: D form. The star is where a group is joined. hPhe(3-Cl-4-CF3) = N[C@@H](CCc1ccc(C(F)(F)F)c(Cl)c1)C(=O)O; NPrPhe(4-CF3) = CCCN[C@@H](Cc1ccc(C(F)(F)F)cc1)C(=O)O; NMeGly(cPent) = CN[C@H](C(=O)O)C1CCCC1; Hyp = O=C(O)[C@@H]1C[C@@H](O)CN1; NMeD = CN[C@@H](CC(=O)O)C(=O)O; NMeL = CN[C@@H](CC(C)C)C(=O)O; Morpholide = C1CN(*)CCO1; Ac5c = NC1(C(=O)O)CCCC1; Aze = O=C(O)[C@@H]1CCN1; Sar = CNCC(=O)O
What was measured:
[1] = target: GDP-bound KRAS wild-type protein (Homo sapiens, UniProt P01116); test: Binding to KRAS by surface plasmon resonance (SPR), dissociation constant KD
GDP-bound KRAS wild-type protein, sequence (P01116 1-188 isoform P01116-2): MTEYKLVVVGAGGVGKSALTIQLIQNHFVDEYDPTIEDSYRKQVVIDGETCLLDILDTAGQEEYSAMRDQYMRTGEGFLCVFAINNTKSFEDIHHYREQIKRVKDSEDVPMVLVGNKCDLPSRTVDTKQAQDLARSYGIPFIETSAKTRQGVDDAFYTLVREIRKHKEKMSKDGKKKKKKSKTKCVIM
Summary of the method: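 Measured at 30°C: SPR with GDP-loaded, E. coli-expressed biotin-Avi RAS captured (~100–300 RU), ascending 75 s compound injections, HBS pH 7.4 with GDP, MgCl2, 4% DMSO. KD from 1:1 fit.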

HRAS wild-type protein = HRAS wild-type protein (Homo sapiens, UniProt P01112); test: Binding to HRAS by surface plasmon resonance (SPR), KD and KD ratio to KRAS
HRAS wild-type protein, sequence (P01112 whole entry): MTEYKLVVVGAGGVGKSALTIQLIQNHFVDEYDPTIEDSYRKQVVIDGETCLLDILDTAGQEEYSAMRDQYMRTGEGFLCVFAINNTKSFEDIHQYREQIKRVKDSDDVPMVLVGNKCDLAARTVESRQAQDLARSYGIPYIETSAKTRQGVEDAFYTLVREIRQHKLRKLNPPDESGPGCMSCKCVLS
Summary of the method: (§1)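 Captured GDP-RAS (~100–300 RU) was exposed to increasing compound concentrations, 75 s per step, in running buffer with 10 µM GDP, 10 mM MgCl2 and 4% DMSO at pH 7.4.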

[2] = target: GDP-bound NRAS wild-type protein (Homo sapiens, UniProt P01111); test: Binding to NRAS by surface plasmon resonance (SPR), KD and KD ratio to KRAS
GDP-bound NRAS wild-type protein, sequence (P01111 whole entry): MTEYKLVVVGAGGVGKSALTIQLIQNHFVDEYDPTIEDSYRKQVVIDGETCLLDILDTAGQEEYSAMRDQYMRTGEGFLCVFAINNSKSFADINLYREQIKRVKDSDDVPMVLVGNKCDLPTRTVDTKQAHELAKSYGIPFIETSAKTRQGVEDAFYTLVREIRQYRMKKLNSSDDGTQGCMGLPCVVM
Summary of the method: as §1

[3] = system: human lung cancer strain NCI-H441; format: cell-based
Summary of the method: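 Step one: dispense the test compound in serial DMSO dilutions. Step three: add the reagent and measure […].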

[4] = Single Cycle Kinetics, 1:1 binding model
[5] = ratio of the KD value with respect to HRAS wild-type protein to the KD value with respect to KRAS
[6] = ratio of the KD value with respect to GDP-bound NRAS wild-type protein to the KD value with respect to KRAS
[7] = ratio of KD value for HRAS wild-type protein to KD value for KRAS (SPR)
[8] = ratio of KD value for GDP-bound NRAS wild-type protein to KD value for KRAS (SPR)
[9] = ratio of KD for HRAS wild-type protein to KD for KRAS
[10] = ratio of KD for GDP-bound NRAS wild-type protein to KD for KRAS

SMILES | Kd [1, 4] [nM] | IC50 [3] [nM] | HRAS /KRAS (HRAS wild-type protein; [9]) | NRAS /KRAS [2, 10] | other results
CCO[C@@H]1C[C@H]2C(=O)NC3(CCC3)C(=O)N(C)[C@@H](C3CCCC3)C(=O)N(C)[C@H](C(=O)N(CC)CC)CC(=O)N(C)[C@@H](CC(F)F)C(=O)N[C@@H]([C@@H](C)CC)C(=O)N(C)CC(=O)N(C)[C@H]3C/C=C\CCN(C3=O)[C@@H](Cc3ccc(C(F)(F)F)cc3)C(=O)N(C)CC(=O)N[C@@H](CCc3cc(F)c(C(F)(F)F)c(F)c3)C(=O)N2C1 [PP1309] | 0.16 | 5.3 |  |  | HRAS /KRAS (HRAS wild-type protein; ratio of KD with respect to HRAS wild-type protein to KD with respect to KRAS): A (a compound having 10 or more and less than 20 is denoted as A); NRAS /KRAS ([2]; ratio of KD with respect to GDP-bound NRAS wild-type protein to KD with respect to KRAS): A (a compound having 10 or more and less than 20 is denoted as A)
CCO[C@@H]1C[C@H]2C(=O)NC3(CCC3)C(=O)N(C)[C@@H](C3CCCC3)C(=O)N(C)[C@H](C(=O)N(C)CC)CC(=O)N(C)[C@@H](CC3CCCC3)C(=O)N[C@@H]([C@@H](C)CC)C(=O)N(C)CC(=O)N(C)[C@H]3C/C=C\CCN(C3=O)[C@@H](Cc3ccc(C(F)(F)F)cc3)C(=O)N(C)CC(=O)N[C@@H](CCc3ccc(C(F)(F)F)c(OC)c3)C(=O)N2C1 [PP1573] | 0.12 | 5.2 |  |  | HRAS /KRAS (HRAS wild-type protein; [7]): A (a compound having 10 or more and less than 20 is denoted as A); NRAS /KRAS [2, 8]: A (a compound having 10 or more and less than 20 is denoted as A)
CCC[C@H]1C(=O)N[C@@H]([C@@H](C)CC)C(=O)N(C)CC(=O)N(C)[C@H]2C/C=C\CCN(C2=O)[C@@H](Cc2ccc(C)cc2)C(=O)N(C)CC(=O)N[C@@H](CCc2cc(F)c(C(F)(F)F)c(F)c2)C(=O)N2C[C@H](OCC)C[C@H]2C(=O)NC2(CC(C)(C)C2)C(=O)N(C)[C@@H](CC(C)C)C(=O)N(C)[C@H](C(=O)N(C)C)CC(=O)N1C [PP2995] |  | 12.9 | A (a compound having 10 or more and less than 20 is denoted as A) | A (a compound having 10 or more and less than 20 is denoted as A) | Kd ([1]; 1:1 binding model): 0.32 nM
CC[C@H](C)[C@@H]1NC(=O)[C@H](Cc2cccc(Cl)c2)N(C)C(=O)C[C@@H](C(=O)N2CCOCC2)N(C)C(=O)[C@H](C2CCCC2)N(C)C(=O)C2(CCCC2)NC(=O)[C@@H]2CCCN2C(=O)[C@H](CCc2ccc(C(F)(F)F)c(Cl)c2)NC(=O)CN(C)C(=O)[C@H](Cc2ccc(F)cc2)N2CCCCC[C@@H](C2=O)N(C)C(=O)CN(C)C1=O [PP0963] |  | 100 | B (a compound having 3 or more and less than 10 is denoted as B) | B (a compound having 3 or more and less than 10 is denoted as B) | Kd ([1]; Single Cycle Kinetics): 0.78 nM
CCO[C@@H]1C[C@H]2C(=O)NC3(CCC3)C(=O)N(C)[C@@H](C3CCCC3)C(=O)N(C)[C@H](C(=O)N(C)C)CC(=O)N(C)[C@@H](CC3CCCC3)C(=O)N[C@@H]([C@@H](C)CC)C(=O)N(C)CC(=O)N(C)[C@H]3CCCCN(C3=O)[C@@H](Cc3ccc(C(F)(F)F)cc3)C(=O)N(C)CC(=O)N[C@@H](CCc3cc(F)c(C(F)(F)F)c(F)c3)C(=O)N2C1 [PP0700] | 0.013 | 2.9 |  |  | HRAS /KRAS (HRAS wild-type protein; [5]): B (a compound having 3 or more and less than 10 is denoted as B); NRAS /KRAS [2, 6]: C (A compound having a KD ratio of 0.1 or more and less than 3 is denoted as C)
CCCN1C(=O)CN(C)C(=O)[C@@H]2CCN2C(=O)[C@H]([C@@H](C)CC)NC(=O)[C@H](CC(C)C)N(C)C(=O)C[C@@H](C(=O)N2CCOCC2)N(C)C(=O)[C@H](C2CCCC2)N(C)C(=O)C2(CCCC2)NC(=O)[C@@H]2C[C@@H](OC)CN2C(=O)[C@H](CCc2ccc(C(F)(F)F)c(Cl)c2)NC(=O)CN(C)C(=O)[C@@H]1Cc1ccc(C(F)(F)F)cc1 [PP0309] ([NMeL]I[Aze][Sar][NPrPhe(4-CF3)][Sar][hPhe(3-Cl-4-CF3)][Hyp](Me)[Ac5c][NMeGly(cPent)][NMeD]-Morpholide; lactam N-11) |  | 11.7 | B (a compound having 3 or more and less than 10 is denoted as B) | B (a compound having 3 or more and less than 10 is denoted as B) | Kd ([1]; 1:1 binding model): 0.29 nM
C#CCN1CC(=O)N(C)[C@H]2C/C=C\CCN(C2=O)[C@@H](Cc2ccc(C)cc2)C(=O)N(C)CC(=O)N[C@@H](CCc2ccc(C(F)(F)F)c(OC)c2)C(=O)N2C[C@H](OCC)C[C@H]2C(=O)NC2(CC(C)(C)C2)C(=O)N(C)[C@@H](C2CCCC2)C(=O)N(C)[C@H](C(=O)N(C)C)CC(=O)N(C)[C@@H](CCC)C(=O)N[C@@H]([C@@H](C)CC)C1=O [PP2099] | 0.14 | 9.1 |  |  | HRAS /KRAS (HRAS wild-type protein; [5]): A (a compound having 10 or more and less than 20 is denoted as A); NRAS /KRAS [2, 6]: A (a compound having 10 or more and less than 20 is denoted as A)

Further compounds by falling IC50 [3], results first:

Kd [1, 4] [nM] | IC50 [3] [nM] | SMILES | HRAS /KRAS (HRAS wild-type protein; [9]) | NRAS /KRAS [2, 10] | other results
 | 63.4 | CCC[C@H]1C(=O)N[C@@H]([C@@H](C)CC)C(=O)N(C)CC(=O)N(C)[C@H]2C/C=C\CCN(C2=O)[C@@H](Cc2ccc(C)cc2)C(=O)N(C)CC(=O)N[C@@H](CCc2ccc(C(F)(F)F)c(OC)c2)C(=O)N2C[C@H](OCC)C[C@H]2C(=O)NC2(CC(C)(C)C2)C(=O)N(C)[C@@H](CC(F)(F)F)C(=O)N(C)[C@H](C(=O)N(C)C)CC(=O)N1C [PP3007] | A (a compound having 10 or more and less than 20 is denoted as A) | A (a compound having 10 or more and less than 20 is denoted as A) | Kd ([1]; 1:1 binding model): 1.3 nM
 | 54 | CC[C@H](C)[C@@H]1NC(=O)[C@H](CC(C)C)N(C)C(=O)C[C@@H](C(=O)N(C)C)N(C)C(=O)[C@H](C2CCCC2)N(C)C(=O)C2(CCCC2)NC(=O)[C@@H]2CCCN2C(=O)[C@H](CCc2ccc(C(F)(F)F)c(Cl)c2)NC(=O)CN(C)C(=O)[C@H](Cc2ccc(F)cc2)N2CCCCC[C@@H](C2=O)N(C)C(=O)CN(C)C1=O [PP0971] | B (a compound having 3 or more and less than 10 is denoted as B) | B (a compound having 3 or more and less than 10 is denoted as B) | Kd ([1]; Single Cycle Kinetics): 0.34 nM
0.71 | 48.8 | CCO[C@@H]1C[C@H]2C(=O)NC3(CC(C)(C)C3)C(=O)N(C)[C@@H](C3CCCC3)C(=O)N(C)[C@@H](C(C)C)CC(=O)N(C)[C@@H](CC3CC3)C(=O)N[C@@H]([C@@H](C)CC)C(=O)N(C)CC(=O)N(C)[C@H]3C/C=C\CCN(C3=O)[C@@H](Cc3ccc(C(F)(F)F)cc3)C(=O)N(C)CC(=O)N[C@@H](CCc3cc(F)c(C(F)(F)F)c(F)c3)C(=O)N2C1 [PP1594] |  |  | HRAS /KRAS (HRAS wild-type protein; [7]): A (a compound having 10 or more and less than 20 is denoted as A); NRAS /KRAS [2, 8]: A (a compound having 10 or more and less than 20 is denoted as A)
0.69 | 38.4 | CC[C@H](C)[C@@H]1NC(=O)[C@H](CC(C)C)N(C)C(=O)C[C@@H](C(=O)N(C)C)N(C)C(=O)[C@H](C2CCCC2)N(C)C(=O)C2(CCCC2)NC(=O)[C@@H]2CCCN2C(=O)[C@H](CCc2ccc(C(F)(F)F)c(Cl)c2)NC(=O)CN(C)C(=O)[C@H](Cc2ccc(C)cc2)N2CC=C(C)C[C@@H](C2=O)N(C)C(=O)CN(C)C1=O [PP0620] |  |  | HRAS /KRAS (HRAS wild-type protein; [5]): C (A compound having a KD ratio of 0.1 or more and less than 3 is denoted as C); NRAS /KRAS [2, 6]: C (A compound having a KD ratio of 0.1 or more and less than 3 is denoted as C)
0.3 | 19.7 | CCO[C@@H]1C[C@H]2C(=O)NC3(CCC3)C(=O)N(C)[C@@H](C3CCCC3)C(=O)N(C)[C@H](C(=O)N(C)C)CC(=O)N(C)[C@@H](Cc3ccccc3)C(=O)N[C@@H]([C@@H](C)CC)C(=O)N(C)CC(=O)N(C)[C@H]3CCCCCN(C3=O)[C@@H](Cc3ccc(C(F)(F)F)cc3)C(=O)N(C)CC(=O)N[C@@H](CCc3cc(F)c(C(F)(F)F)c(F)c3)C(=O)N2C1 [PP0672] |  |  | HRAS /KRAS (HRAS wild-type protein; [5]): B (a compound having 3 or more and less than 10 is denoted as B); NRAS /KRAS [2, 6]: B (a compound having 3 or more and less than 10 is denoted as B)
 | 5.5 | CCO[C@@H]1C[C@H]2C(=O)NC3(CC(C)(C)C3)C(=O)N(C)[C@@H](C3CCCC3)C(=O)N(C)[C@H](C(=O)N(C)C)CC(=O)N(C)[C@@H]([C@@H](C)OC)C(=O)N[C@@H]([C@@H](C)CC)C(=O)N(C)CC(=O)N(C)[C@H]3C/C=C\CCN(C3=O)[C@@H](Cc3ccc(C)cc3)C(=O)N(C)CC(=O)N[C@@H](CCc3ccc(C(F)(F)F)c(Cl)c3)C(=O)N2C1 [PP3209] | B (a compound having 3 or more and less than 10 is denoted as B) | A (a compound having 10 or more and less than 20 is denoted as A) | Kd ([1]; 1:1 binding model): 0.1 nM
0.097 | 2.5 | CCCN(C)C(=O)[C@@H]1CC(=O)N(C)[C@@H](CC)C(=O)N[C@@H]([C@@H](C)CC)C(=O)N(C)CC(=O)N(C)[C@H]2C/C=C\CCN(C2=O)[C@@H](Cc2ccc(C(F)(F)F)cc2)C(=O)N(C)CC(=O)N[C@@H](CCc2ccc(C(F)(F)F)c(OC)c2)C(=O)N2C[C@H](OCC)C[C@H]2C(=O)NC2(CC(C)(C)C2)C(=O)N(C)[C@@H](C2CCCC2)C(=O)N1C [PP1654] |  |  | HRAS /KRAS (HRAS wild-type protein; [7]): A (a compound having 10 or more and less than 20 is denoted as A); NRAS /KRAS [2, 8]: A (a compound having 10 or more and less than 20 is denoted as A)

Source: patent EP4603105A1, “PHARMACEUTICAL COMPOSITION CONTAINING CYCLIC COMPOUND HAVING SELECTIVE KRAS INHIBITORY EFFECT AGAINST HRAS AND NRAS” (CHUGAI SEIYAKU KABUSHIKI KAISHA, priority 2022, dated 2024)
